# Source: patent US20130316998A1, “METHOD FOR TREATING PANCREATIC CANCER” (Niiki Pharma Acquisition Corp. 2, priority 2010, published 2013)
# pIC50: −log10 of the molar value.
# Columns and labels:
# [1] = test system: advanced-stage pancreatic cancer; conditions: erlotinib in combination with gemcitabine; Moore et al. 2007; cited from earlier work
# PANC-1 cells = conditions: Guo et al. 2009; Durkin et al. 2003; cited from earlier work
# PANC-1 cell line = test: ATCC's MTT Cell Proliferation Assay, PANC-1; assay type: cell-based, human
# Procedure: (§1) To test the activities of tris(8-quinolinolato)gallium(III), ATCC's MTT Cell Proliferation Assay® was performed using human pancreatic cancer cell lines PANC-1, BxPC-3, and Capan-1. Stock cultures were allowed to grow to 70-80% confluence for this study. The anti-proliferative activity of tris(8-quinolinolato)gallium(III), against the indicated cell lines was evaluated in vitro using the ATCC's MTT Cell Proliferation Assay (Catalog No. 30-1010K). PANC-1 was grown using DMEM, 10% fetal bovine serum (FBS), 1% of pen/strep/glutamine (PSG) and was seeded with 6E+03 cells/well. […] The plates were left overnight at room temperature in the dark and was read on a plate reader using SoftMax® Pro (version 5.2, Molecular Devices).
# (§2) The absorbance data was analyzed as follows: Absorbance values were converted to Percent of Control and plotted against test agent concentrations for IC50 calculations using SoftMax® Pro (version 5.2, Molecular Devices). […] Percent of Control values were calculated by dividing the absorbance values for each test well by the No Drug Control average (column 11 values; cells+vehicle control) and multiplying by 100. Plots of Compound Concentration versus Percent of Control were analyzed using the 4-parameter equation to obtain IC50 values and other parameters that describe the sigmoidal dose response curve. […]
# [2] = test system: pancreatic tumor cell line MIA PaCa2; test: MTT assay in 3-dimentional tumor model (HuBiogel) derived from MIA PaCa2; assay type: cell-based; conditions: 3-D HuBiogel tumor beads
# Procedure: (§3) The compound tris(8-quinolinolato)gallium(III) was tested in a 3-dimentional tumor model derived from pancreatic tumor cell line MIA PaCa2. Specifically, cells were trypsinized, washed, counted by trypan blue exclusion. Tumor beads were then prepared by mixing 20,000 cells/100 of HuBiogel (4 mg/mL) (See U.S. patent application Ser. No. 10/546,506, which is incorporated herein by reference). The 3-D tumor beads were cultivated for 72 hours in multi-well plates with complete media (10% FBS) in a 37° C. incubator +5% CO2. Mini-tumors were treated with various concentrations of the test compound tris(8-quinolinolato)gallium(III) in media (final 0.2-0.3% DMSO) or control (DMSO). Repeated drug treatment was done by removing the culture media and replacing with fresh media with drug compound or DMSO. On Day 3, MTT assay and live-cell staining with Calcein AM were performed (5 beads/assay set).
# (§4) Statistical analysis of data sets (Average, T-test, GI-50) was performed using MS-Excel program. The average GI-50 (the drug concentration required for growth inhibition at 50%) is […].
# [3] = test system: pancreatic tumor cell line MIA PaCa2; test: live-cell staining with Calcein AM / image analysis in 3-D tumor beads; assay type: cell-based; conditions: 3-D HuBiogel tumor beads, Day 3
# Procedure: as §3, §4
# Capan-1 cell line = test: ATCC's MTT Cell Proliferation Assay, Capan-1; assay type: cell-based, human; conditions: Capan-1, 72 hours post-treatment
# Procedure: as §1, §2
# BxPC-3 cell line = test: ATCC's MTT Cell Proliferation Assay, BxPC-3; assay type: cell-based, human; conditions: BxPC-3, 72 hours post-treatment
# Procedure: as §1, §2
Structure (SMILES),median overall survival benefit [1],resistance of PANC-1 cells to the drug (PANC-1 cells),activity in pancreatic cancer cells resistant to gemcitabine and/or erlotinib (PANC-1 cell line; PANC-1),"pIC50 (PANC-1 cell line; PANC-1, 72 hours post-treatment, MTT)","GI50 ([2]; MTT assay on Day 3, read-out: average GI-50 (the drug concentration required for growth inhibition at 50%)) [µM]","tumor proliferation activity ([2]; MTT assay, FIG. 1)",tumor killing in live-cell staining/image analysis [3],pIC50 (Capan-1 cell line),pIC50 (BxPC-3 cell line)
C#Cc1cccc(Nc2ncnc3cc(OCCOC)c(OCCOC)cc23)c1 [erlotinib],less than four weeks,resistant,–,–,–,–,–,–,–
Nc1ccn([C@@H]2O[C@H](CO)[C@@H](O)C2(F)F)c(=O)n1 [gemcitabine],–,resistant,–,–,–,–,–,–,–
[Ga+3].[O-]c1cccc2cccnc12.[O-]c1cccc2cccnc12.[O-]c1cccc2cccnc12 [tris(8-quinolinolato)gallium(III)],–,–,active,5.99,35.7,significantly inhibited tumor proliferation activity,dose-dependent tumor killing,5.09,8.49
